Test results published in PMC5564715, “Acetyl-CoA carboxylase inhibitors attenuate WNT and Hedgehog signaling and suppress pancreatic tumor growth” (Oncotarget, 2016).

How the values were obtained:
ACC1 = target: T1, ACC1 (Homo sapiens, UniProt Q13085); assay: ACC1 inhibition IC50 (assay details not given; Supplementary Figure S1A); format: biochemical
T1 construct: gene ACACA

ACC2 = target: T2, ACC2 (Homo sapiens, UniProt O00763); assay: ACC2 inhibition IC50 (assay details not given; Supplementary Figure S1A); format: biochemical
T2 construct: gene ACACB
T2 sequence (O00763 whole entry): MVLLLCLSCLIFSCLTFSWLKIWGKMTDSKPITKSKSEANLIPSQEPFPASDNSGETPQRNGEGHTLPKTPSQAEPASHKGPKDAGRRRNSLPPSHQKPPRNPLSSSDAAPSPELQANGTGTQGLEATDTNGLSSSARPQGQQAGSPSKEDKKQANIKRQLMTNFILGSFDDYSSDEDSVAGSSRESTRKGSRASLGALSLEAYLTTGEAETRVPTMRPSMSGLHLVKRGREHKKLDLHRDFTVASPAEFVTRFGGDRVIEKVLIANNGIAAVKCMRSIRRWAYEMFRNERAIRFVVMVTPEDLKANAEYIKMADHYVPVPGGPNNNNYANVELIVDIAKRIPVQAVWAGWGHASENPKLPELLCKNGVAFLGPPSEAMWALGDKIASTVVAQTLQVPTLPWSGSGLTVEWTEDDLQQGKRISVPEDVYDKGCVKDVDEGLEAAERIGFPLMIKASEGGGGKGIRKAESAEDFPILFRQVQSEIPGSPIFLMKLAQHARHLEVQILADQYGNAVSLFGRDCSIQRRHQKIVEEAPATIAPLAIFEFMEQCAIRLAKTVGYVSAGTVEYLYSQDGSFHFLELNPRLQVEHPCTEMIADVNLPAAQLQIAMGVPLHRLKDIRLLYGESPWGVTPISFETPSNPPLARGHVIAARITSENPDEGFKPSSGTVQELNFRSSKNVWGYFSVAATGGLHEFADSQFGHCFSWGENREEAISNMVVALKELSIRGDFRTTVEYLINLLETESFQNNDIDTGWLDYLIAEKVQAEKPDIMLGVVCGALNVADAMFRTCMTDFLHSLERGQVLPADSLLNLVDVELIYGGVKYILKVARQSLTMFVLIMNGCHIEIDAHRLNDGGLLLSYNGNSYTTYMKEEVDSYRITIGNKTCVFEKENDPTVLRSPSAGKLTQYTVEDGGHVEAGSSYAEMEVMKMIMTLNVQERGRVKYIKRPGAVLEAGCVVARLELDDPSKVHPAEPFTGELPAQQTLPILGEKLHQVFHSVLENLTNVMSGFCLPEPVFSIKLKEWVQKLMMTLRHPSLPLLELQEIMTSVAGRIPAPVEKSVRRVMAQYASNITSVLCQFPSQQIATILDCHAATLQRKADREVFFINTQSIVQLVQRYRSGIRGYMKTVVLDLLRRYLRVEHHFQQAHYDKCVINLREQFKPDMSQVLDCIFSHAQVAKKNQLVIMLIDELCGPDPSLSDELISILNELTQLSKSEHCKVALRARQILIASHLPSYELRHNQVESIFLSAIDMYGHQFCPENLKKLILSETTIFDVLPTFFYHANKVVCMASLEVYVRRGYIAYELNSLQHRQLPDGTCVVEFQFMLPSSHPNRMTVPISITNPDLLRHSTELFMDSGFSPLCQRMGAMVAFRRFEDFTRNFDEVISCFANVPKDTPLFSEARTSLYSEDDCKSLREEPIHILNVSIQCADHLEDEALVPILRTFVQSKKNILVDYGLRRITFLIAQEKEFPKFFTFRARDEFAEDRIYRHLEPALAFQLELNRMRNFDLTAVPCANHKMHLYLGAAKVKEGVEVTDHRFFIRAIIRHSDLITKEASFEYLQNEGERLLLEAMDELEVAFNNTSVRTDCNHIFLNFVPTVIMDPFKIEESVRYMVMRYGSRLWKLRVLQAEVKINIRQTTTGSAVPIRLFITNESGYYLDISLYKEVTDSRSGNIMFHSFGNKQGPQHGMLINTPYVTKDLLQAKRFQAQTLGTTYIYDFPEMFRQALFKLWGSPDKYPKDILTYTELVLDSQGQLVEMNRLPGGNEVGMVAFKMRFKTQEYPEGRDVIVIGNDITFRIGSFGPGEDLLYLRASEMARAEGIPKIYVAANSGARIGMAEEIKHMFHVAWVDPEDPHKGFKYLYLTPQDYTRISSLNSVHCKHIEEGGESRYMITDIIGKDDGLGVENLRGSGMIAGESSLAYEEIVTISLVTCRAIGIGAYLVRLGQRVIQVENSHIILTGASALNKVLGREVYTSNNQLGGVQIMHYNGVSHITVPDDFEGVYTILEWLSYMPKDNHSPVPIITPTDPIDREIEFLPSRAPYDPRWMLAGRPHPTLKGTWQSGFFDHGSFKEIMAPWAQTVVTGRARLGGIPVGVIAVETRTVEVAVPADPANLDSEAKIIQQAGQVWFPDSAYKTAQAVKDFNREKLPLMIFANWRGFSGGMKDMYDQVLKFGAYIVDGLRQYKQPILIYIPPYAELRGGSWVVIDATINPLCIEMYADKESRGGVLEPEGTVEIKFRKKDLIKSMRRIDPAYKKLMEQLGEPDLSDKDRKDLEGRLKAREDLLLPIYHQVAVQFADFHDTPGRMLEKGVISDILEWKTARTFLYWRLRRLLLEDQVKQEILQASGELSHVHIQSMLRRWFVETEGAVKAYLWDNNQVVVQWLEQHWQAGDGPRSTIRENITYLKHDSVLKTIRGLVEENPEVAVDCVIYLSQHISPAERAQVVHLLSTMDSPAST

| IC50 (ACC1) | IC50 (ACC2) | Substance |
| --- | --- | --- |
| 280 nM | 2600 nM | BAY ACC001 |
| 100 nM | 1400 nM | BAY ACC002 |
